Assay results reported in patent US20230321025A1, “METHOD AND COMPOUND FOR THE TREATMENT AND ELIMINATION OF AN IMMUNODEFICIENCY CONDITION” (priority 2020, published 2023).

Tests used:
HIV-1 = test: Cell based time course study (mode of action); conditions: AZT and Indinavir as controls
Description: As such, the cell based time course study is such an important tool for the determination of viral kinetics and a mode of action for a drug. […] The dynamics of the interactions relate to the viral kinetic of infection and drug addition at various time points. In the various cell-based assays conducted on H2K1001 and/or 90I, it may be reasonably concluded that the compound works both early and late.

[1] = system: chronically HIV-1 infected H9 cells; test: Co-cultivation study with chronically HIV-1 infected H9 cells; assay type: cell-based
Description: Viral pathogenesis in co-cultivation of infected cells with uninfected target cells presents a complex system with several target sites (attachment, fusion, transcription, processing, packaging and budding).
In many documented antiretroviral studies, the co-culture system is conventionally used to isolate the virus as well as to study cell-to-cell transmission or to determine if a given compound blocks cell fusion. H2K1001 and/or 90I may use aggressive intervention that could possibly be directed to at least one of a late phase, early fusion and/or attachment, and both early and late. However, judging from the variety of 90I results, early and late mode of action is consistent to this compound.

[2] = system: gamma interferon production; test: Gamma interferon production in spleenocyte of mice; assay type: cell-based; conditions: versus positive control PMA-Ionomycin combination
Description: Referring again to FIG. 14, activated CD8+ cells are reported to produce high levels of gamma interferon, which may be involved in the anti-HIV-1 immune responses, contributing to both control of viral spread and concomitant lymphoid follicular lyses. […] This finding may have a far-reaching implication and relevant in the restoration of immune system competence.

[3] = system: CEM-SS T-lymphoblastoid cells; test: Drug-induced cytotoxicity in CEM-SS cells (tetrazolium reduction); conditions: for Toxicity testing, mean optical density: human, 6 days
Description: This assay was used to test the effectiveness of anti-HIV drug monotherapy in the established T-cell line CEM-SS infected with HIV-1RF, HIV-1IIIb, HIV-2ROD, or other cytolytic variants of HIV.
The drugs were solubilized in DMSO (dimethyl sulfoxide). […] CEM-SS cells were in logarithmic growth phase at the time of experimentation. Virus (HIV-1RF) stocks that past the necessary quality controls (killing effect on the type of cells used, limited variability, etc) were thawed and maintained on ice until required for addition.
Half-log serial dilutions of the antiviral agent or compound of the invention, H2K1001 (90i), were made in tissue culture media (RPMI 1640 without phenol red, supplemented with 10% heat inactivated fetal bovine serum, 1% L-Glutamine, 1% Pen/Strep and 50 ug/ml gentimycin). Virus, cell, drug and diluent (ethanol) controls were included for these tests. Virus was added after cells and drugs were mixed. Cell, drug, and virus containing cultures were incubated for six (6) days without additional feeding at which time the cultures were evaluated macroscopically and microscopically for cell toxicity, and the tetrazolium salt […] was added for quantitation by the colorimetric determination of formazan production (optical density).
Drug efficacy and cytotoxicity effects were determined six days after infection by the metabolic reduction of the tetrazolium salt XTT to its‘ formazan by surviving cells and was quantitated by determination of optical density at 450 nm with background subtraction at 650 nm (Tables 1-4).
The drug plate analysis reports from this assay are provided below in Tables 1-4. Calculated endpoints (EC50, etc.) were determined using Cho and Cho Median Effect Equation (Daids Virology Manual for HIV Laboratories, Compiled by The Division of Aids, National Institute of Allergy and Infectious Diseases, National Institutes of Health and Collaborating Investigators, Version January 1997).

[4] = system: multi-drug resistant HIV-1 (MDR-27221); test: Inhibitory activity against multi-drug resistant HIV-1 clinical isolate; assay type: cell-based; conditions: MDR-27221 strain
Description: Furthermore, a resistance conferring mutation has been identified for virtually all antiretroviral agents in clinical practice. A test virus parental stock originated from a genotypic antiretroviral resistance test (GART) study. Additionally, a clinical isolate was pre-confirmed for genetic and phenotypic variance prior to this test. […] Accordingly, the fact that 90I may be effective against MDR viruses with multiple modes of action, it can replace the need for combination HIV drug therapy. This finding may be highly significant because typical current single target-oriented designer antiretroviral drugs have seriously been challenged by resistant viruses. Due to natural selection, the HIV-1 virus may have developed several survival strategies that include mutation.

[5] = system: peripheral blood mononuclear cells (PBMC); test: Drug-induced cytotoxicity in PBMC (MTS); assay type: cell-based; conditions: for Toxicity testing, mean optical density: human, 7 days
Description: Drug efficacy was determined by the production of supernatant HIV-1 p24. Drug-induced cytotoxicity was determined by the metabolic reduction of tetrazolium salts (MTS; Promega).
The antiviral drug or agent of the invention, H2K-1001 (90i), was solubilized. PBMCs, stimulated with PHA (phytohemagglutinin) for three days were employed throughout. Virus stocks (U.S. Clinical isolates) grown in PBMCs only, that past the necessary quality controls (i.e., replicate to high titer in PBMCs and meet the requirements as to genotype and phenotype) were rapidly thawed and maintained on ice until required for infection.
Virus and cell controls were included on each test plate. Virus was added after cells and drugs were mixed. Cell, drug and virus containing cultures were incubated for seven (7) days with an interim feeding at day three or four.
Supernatants were sampled at seven days for p24 determination by antigen capture ELISA. Cytotoxicity was measured by the metabolic reduction of the tetrazolium salt according to the manufacturer’s (Promega) recommendations.
The drug analysis reports from these studies are provided below in Tables 7-10. Efficacy (EC50) and viability (IC50) determinations were made using Cho and Cho Median Effect Equation, as noted above. Efficacy is expressed as the 50% effective concentration (EC50) and drug induced toxicity as the 50% inhibitory concentration (IC50).

O=C(OCCOCCOC(=O)c1ccccc1)c1ccccc1 [90I, diethylene glycol dibenzoate]
mode of action (time of inhibition) (HIV-1): inhibit HIV-1 both early and late | syncytium formation ([1]; co-cultivation): drastic drop | cell viability ([1]; co-cultivation, exponential cell growth): greater than ninety percent | viral burden (p24) after treatment ([1]; co-cultivation, from 1.7 ×10^6 pg of p24): 500 pg | progression of HIV-1 infection ([1]; compared to untreated controls): effectively blocked the progression of HIV-1 infection | amount of gamma interferon produced [2]: equivalent to that of the positive control | Toxicity % CC ([3]; 0.01 ug/ml): 100 % CC | Toxicity % CC ([3]; 0.03 ug/ml): 103 % CC | Toxicity % CC ([3]; 0.1 ug/ml): 104 % CC | Toxicity % CC ([3]; 0.3 ug/ml): 100 % CC | Toxicity % CC ([3]; 1 ug/ml): 100 % CC | Toxicity % CC ([3]; 3 ug/ml): 99 % CC | Toxicity % CC ([3]; 10 ug/ml): 93 % CC | Toxicity % CC ([3]; 33 ug/ml): 94 % CC | Toxicity testing, optical density of single wells ([3]; 33 ug/ml, listed as H2K1001 (90I)): 2.3330 | Toxicity % CC ([3]; 100 ug/ml): 106 % CC | 50% inhibitory concentration, IC50 (drug induced toxicity) ([3]; CEM-SS, high test concentration 100 ug/ml): greater than 100 ug/ml | IC50 ([3]; Homo sapiens, CEM-SS): > 100 mg/L | Toxicity testing, mean optical density ([3]; 0.01 ug/ml): 2.4317 | Toxicity testing, mean optical density ([3]; 0.03 ug/ml): 2.4969 | Toxicity testing, mean optical density ([3]; 0.1 ug/ml): 2.5149 | Toxicity testing, mean optical density ([3]; 0.3 ug/ml): 2.4130 | Toxicity testing, mean optical density ([3]; 1 ug/ml): 2.4177 | Toxicity testing, mean optical density ([3]; 3 ug/ml): 2.4007 | Toxicity testing, mean optical density ([3]; 33 ug/ml): 2.2879 | Toxicity testing, mean optical density ([3]; 100 ug/ml): 2.5604 | EC50 ([4]; Human immunodeficiency virus 1): 3 mg/L | TI [4]: > 333 | Toxicity % CC ([5]; 0.01 ug/ml): 94 % CC | Toxicity % CC ([5]; 0.03 ug/ml): 103 % CC | Toxicity % CC ([5]; 0.10 ug/ml): 91 % CC | Toxicity % CC ([5]; 0.33 ug/ml): 94 % CC | Toxicity % CC ([5]; 1 ug/ml): 97 % CC | Toxicity % CC ([5]; 3 ug/ml (3.2 in Table 11)): 94 % CC | Toxicity % CC ([5]; 10 ug/ml): 100 % CC | Toxicity % CC ([5]; 32 ug/ml): 104 % CC | Toxicity % CC ([5]; 100 ug/ml): 111 % CC | IC50 ([5]; PBMC, read-out: IC50 (drug induced toxicity)): > 100 mg/L | IC50 (drug induced toxicity) ([5]; PBMC, unit not given): greater than 100 | Toxicity testing, mean optical density ([5]; 0.01 ug/ml): 1.3114 | Toxicity testing, mean optical density ([5]; 0.03 ug/ml): 1.4316 | Toxicity testing, mean optical density ([5]; 0.1 ug/ml): 1.2654 | Toxicity testing, mean optical density ([5]; 0.33 ug/ml): 1.2992 | Toxicity testing, mean optical density ([5]; 1 ug/ml): 1.3474 | Toxicity testing, mean optical density ([5]; 3 ug/ml): 1.3102 | Toxicity testing, mean optical density ([5]; 10 ug/ml): 1.3987 | Toxicity testing, mean optical density ([5]; 32 ug/ml): 1.4463 | Toxicity testing, mean optical density ([5]; 100 ug/ml): 1.5431
